For orientation: IC50 means the concentration at which inhibition is half-maximal. A word on the Ki: it is a measure of affinity in units of concentration, obtained from inhibition or displacement.

The values that follow come from ChEMBL document CHEMBL5244260, “Aldose reductase and protein tyrosine phosphatase 1B inhibitors as a promising therapeutic approach for diabetes mellitus” (Eur J Med Chem, 2020).

The target of experiment [1] is T1, Tyrosine-protein phosphatase non-receptor type 1 (Homo sapiens, UniProt P18031).
T1 sequence (P18031 whole entry): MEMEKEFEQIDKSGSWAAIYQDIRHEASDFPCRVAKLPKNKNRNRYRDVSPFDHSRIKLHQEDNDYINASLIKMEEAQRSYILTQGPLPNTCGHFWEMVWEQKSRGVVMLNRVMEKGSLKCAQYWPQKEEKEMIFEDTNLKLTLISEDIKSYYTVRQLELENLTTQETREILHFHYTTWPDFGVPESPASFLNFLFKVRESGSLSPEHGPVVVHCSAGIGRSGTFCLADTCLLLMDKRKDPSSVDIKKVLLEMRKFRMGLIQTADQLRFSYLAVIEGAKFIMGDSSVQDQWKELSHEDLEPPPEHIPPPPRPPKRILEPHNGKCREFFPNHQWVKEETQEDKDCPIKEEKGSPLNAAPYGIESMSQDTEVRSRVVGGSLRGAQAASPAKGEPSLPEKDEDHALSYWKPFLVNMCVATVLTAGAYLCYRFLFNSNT
As to the kind of experiment: Inhibition of human recombinant PTP1B expressed in Escherichia coli using pNPP as substrate by microplate reader assay.

For experiment [2], the target named is T1, Tyrosine-protein phosphatase non-receptor type 1. The experiment in a line: Inhibition of human PTP1B using pNPP as substrate incubated for 30 min.
Experiment [3] addresses Aldo-keto reductase family 1 member B1 (Homo sapiens, UniProt P15121). The experiment in a line: Inhibition of human Aldose reductase using glyceraldehyde as substrate preincubated for 5 mins in presence of NADPH followed by substrate addition and measured after 3 mins by UV-visible spectrophotometric assay.
The nature of experiment [4]: Inhibition of ALR2 in Sprague-Dawley rat lens using D,L-glyceraldehyde as substrate preincubated for 10 mins in presence of NADPH followed by substrate addition and measured after 5 mins by spectrophotometric assay. In kind it is tissue-based.
In experiment [5] the target is T2, Aldo-keto reductase family 1 member B1 (Rattus norvegicus, UniProt P07943). The experiment in a line: Inhibition of ALR in Fischer-344 rat lens using D,L-glyceraldehyde as substrate in presence of NADPH measured after 3 mins by spectrophotometric assay. It is filed as tissue-based.
Experiment [6] is described as follows: Inhibition of ALR2 in rat lens using D,L-glyceraldehyde as substrate preincubated for 10 mins in presence of NADPH followed by substrate addition and measured after 20 mins by spectrophotometric assay. In kind it is tissue-based.
The target of experiment [7] is T1, Tyrosine-protein phosphatase non-receptor type 1. The experiment in a line: Inhibition of Flag-tagged human PTP1B (1 to 298 residues) expressed in Escherichia coli BL21 using FDP as substrate.
Experiment [8] deals with T3, Tyrosine-protein phosphatase non-receptor type 2 (Homo sapiens, UniProt P17706).
T3 sequence (P17706 whole entry): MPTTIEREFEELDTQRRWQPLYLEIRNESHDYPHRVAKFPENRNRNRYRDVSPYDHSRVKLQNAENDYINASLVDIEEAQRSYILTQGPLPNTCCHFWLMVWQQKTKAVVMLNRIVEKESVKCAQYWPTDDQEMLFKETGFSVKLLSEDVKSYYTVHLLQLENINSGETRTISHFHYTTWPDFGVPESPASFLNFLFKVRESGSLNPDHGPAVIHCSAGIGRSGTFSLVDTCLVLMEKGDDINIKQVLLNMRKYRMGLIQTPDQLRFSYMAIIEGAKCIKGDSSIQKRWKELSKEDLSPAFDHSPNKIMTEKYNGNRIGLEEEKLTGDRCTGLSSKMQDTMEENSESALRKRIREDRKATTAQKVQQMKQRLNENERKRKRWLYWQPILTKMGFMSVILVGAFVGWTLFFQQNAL
As to the kind of experiment: Inhibition of Flag-tagged human TCPTP (1 to 296 residues) expressed in Escherichia coli BL21 using FDP as substrate.

Experiment [9] in a line: Inhibition of ALR2 in Wistar rat lens using D,L-glyceraldehyde as substrate preincubated for 10 mins in presence of NADPH followed by substrate addition and measured after 5 mins by spectrophotometric assay. In kind it is tissue-based.
For experiment [10], the target named is T1, Tyrosine-protein phosphatase non-receptor type 1. The experiment in a line: Inhibition of PTP1B (unknown origin) assessed as inhibition constant.
For experiment [11], the species on record is Homo sapiens. The experiment in a line: Selectivity ratio of Ki for PTP1B (unknown origin) to Ki for TCPTP (unknown origin).
A short description of experiment [12]: Inhibition of human recombinant ALR1 expressed in Escherichia coli by Coomassie reagent assay.
For experiment [13], the target named is Aldo-keto reductase family 1 member B1 (Sus scrofa, UniProt P80276). The experiment in a line: Inhibition of ALR2 in pig lens using D,L-glyceraldehyde as substrate preincubated for 4 mins in presence of NADPH followed by substrate addition and measured after 4 mins by spectrophotometric assay. It is filed as tissue-based.
Experiment [14] deals with T2, Aldo-keto reductase family 1 member B1. The experiment in a line: Inhibition of Aldose reductase in rat lens using D,L-glyceraldehyde as substrate in presence of NADPH by spectrophotometric assay. In kind it is tissue-based.
For experiment [15], the species on record is Homo sapiens. The experiment in a line: Selectivity ratio of Ki for PTP1B (unknown origin) to Ki for LAR (unknown origin).
The species entered for experiment [16] is Homo sapiens. The experiment in a line: Selectivity ratio of Ki for PTP1B (unknown origin) to Ki for PTPalpha (unknown origin).

For `CC(=C\c1csc([C@@H](Cc2ccc(OCc3ccccc3)cc2)NC(=O)CC2CCCCC2)n1)/C=C(\C)C(=O)O`, in experiment [1], the 50% inhibitory concentration (IC50) was found to be 2.48 µM.
The compound `CCCCCCS(=O)(=O)NC(=O)c1ccc(CSCc2ccc(-c3ccccc3)cc2)cc1` returned an IC50 in [2] of 0.28 µM.
Take `Nc1ccc(CNC(=O)c2ccc(Cl)cc2OCC(=O)O)c(F)c1`: the IC50 in experiment [3] stood at 1.3 µM.
Turning to `O=c1c(/C=C/c2ccc(O)cc2)nc2ccc(F)cc2n1-c1cnn(O)c1`, the 50% inhibitory concentration (IC50) in experiment [4] was 0.107 µM.
On to `O=C(O)Cn1cc(-c2nc3ccccc3s2)cc1C(=O)c1ccccc1`, for which the concentration for half-maximal inhibition (IC50) in experiment [5] came out at 0.045 µM.
On to `Cc1ccc(C(=O)/C(=C/c2ccc(O)c(O)c2)C(=O)O)cc1`, for which the IC50 in experiment [6] is 0.49 µM.
Take `Cc1noc(-c2ccc(C(C/C=C/c3ccccc3)(Cc3ccc(C(F)(F)P(=O)(O)O)cc3)n3nnc4ccccc43)cc2)n1` (centres undefined): the IC50 in experiment [7] came out at 0.163 µM; in experiment [8], 1.6 µM.
For the compound `O=C(O)CC1=CN(/C=C/c2ccc(O)cc2)S(=O)(=O)c2ccccc21`, in experiment [9], the half-inhibitory concentration (IC50) was found to be 0.094 µM.
As for `COC(=O)c1c(O)cccc1OC/C=C/c1cccc(-c2onc(C(=O)O)c2N)c1`, in [10], the Ki was 2.1 µM. Also, the Ratio Ki in experiment [11] is 20.
Turning to `O=C(O)COc1cc(F)ccc1C(=S)NCc1ccc(Br)cc1F`, in [12], the half-maximal inhibitory concentration (IC50) came to 33 µM.
With `O=C(O)Cn1c2ccccc2n2c(=O)c(=O)n(Cc3ccccc3)nc12`, the half-maximal inhibitory concentration (IC50) in experiment [4] came out at 0.36 µM.
Consider `O=C(O)Cn1ccc(-c2nc3ccccc3s2)c1`, for which the IC50 in experiment [5] was 0.049 µM.
For `O=C(O)COc1cc(F)ccc1C(=S)NCc1cccc([N+](=O)[O-])c1`, the half-maximal inhibitory concentration (IC50) in [12] was 35 µM.
`O=C(O)CCCCCN1N=C2c3ccsc3CCC2CC1=O` (centres undefined): the 50% inhibitory concentration (IC50) in experiment [13] was found to be 7.6 µM.
Take `CC(C)NC(=O)NS(=O)(=O)c1ccc(-n2nc(-c3ccc(F)cc3)ccc2=O)cc1`: the IC50 in experiment [14] worked out at 45 µM.
In the case of `O=C(O)COc1ccc(-c2cc(NC(=O)C(=O)O)c(C(=O)O)s2)cc1`, the Ratio Ki in experiment [15] and in [16] was 20 each time.
